# Assays:
# [1] = system: human gastric epithelium cells SGC7901; test: Effect on Helicobacter pylori-induced mitochondrial mechanisms of apoptosis in gastric epitheliocytes (mito-GFP confocal microscopy); type: cell-based; conditions: Klacid 500 ng/mL as positive control, same conditions as peptide 10 µM
# Experimental: To evaluate the biological activity and effects of peptide H-Glu-Asp-Gly-OH on mitochondrial mechanisms of apoptosis in gastric epitheliocytes, induced by Helicobacter pylori germs, human gastric epithelium cells SGC7901 were studied. The cells were cultivated at 37°C in a damp incubation medium containing 50 mL/L CO2 in DMEM (Dulbecco's Modified Eagle's Medium, ICN Biomedicals) and 10% calf embryonic serum. A preliminary separation of cells for passaging was carried out in the ratio of 1:3-1:5 using a mixture of 0.125% trypsin, 0.02M EDTA (ethylenediaminetetraacetic acid), 0.02% glucose dissolved in a phosphate buffer. The cells were placed on a 24-well plate in the amount of 10^6 cells per well. The cells were passaged in a cultivation medium for 5 days and then taken for study.
# On the 5th day after the beginning of cell passaging the peptide H-Glu-Asp-Gly-OH in the dose of 10 µM was administered in the cultivation medium, and in 30 minutes of incubation the cells were taken for study. Klacid antibiotic (clarithromycin, Abbott) in the dose of 500 ng/mL was administered to the cultures in the same conditions as positive control. […]
# The status of isolated mitochondria was evaluated using immunofluorescent confocal laser microscopy. […]
# Confocal microscopy of mitochondria with optical density evaluation was performed in an inverted confocal microscope Olympus Fluoview CM FV300-IX70 using an apochromatic lens 606 UPlan (Olympus). A 488 nm excitation wave of argon laser was used in each chamber to specify mito-GFP fluorescence that verifies the structure of mitochondria.
# modeled ulcer = test: Morphology study of the induced gastric ulcer (cysteamine-HCL + Helicobacter pylori); type: in vivo, Sprague Dawley rats; conditions: treatment daily for 5 days, Klacid 10 mg intramuscularly
# Experimental: The study was carried out on 90 male Sprague Dawley rats (180-220 g) randomly subdivided into 9 groups (10 animals per group): • Group 1 - intact rats (saline solution) • Group 2 - modeled ulcer + saline solution • Group 3 (6 subgroups) - modeled ulcer + H-Glu-Asp-Gly-OH • Group 4 - modeled ulcer + Klacid antibiotic
# Ulcer was modeled by three-time administration (in 4 hours) in the rat stomach of cysteamine-HCL (Aldrich, Milwannee, WI) by means of a probe in the dose of 25 mg per 100 g of body weight. The ulcer, approximately 28 mm^2 in size, appeared at the boundary between antral and fundal segments of the stomach 12 hours after the last administration. Simultaneously with the first administration of cysteamine-HCL a Helicobacter pylori culture (Curtin Matheson Scientific Inc, strain Cag J117, 100 microbial cells) was administered in the rat stomach through the same probe.
# A means on the basis of the pharmaceutical composition comprising the studied peptide H-Glu-Asp-Gly-OH was administered subcutaneously in the dose of 1 µg per kg of animal body weight (group 3a), 2,5 µg per kg of body weight (group 3b) and 10 µg per kg of body weight (group 3c) in 0,5 ml of saline solution daily, for 5 days from the occurrence of the stomach ulcer.
# The means on the basis of the pharmaceutical composition comprising the studied peptide H-Glu-Asp-Gly-OH was administered intragastrically (through a probe) in the dose of 1 µg per kg of animal body weight (group 3d), 2,5 µg per kg of body weight (group 3e) and 10 µg per kg of body weight (group 3f) in 0,5 ml of saline solution daily, for 5 days from the occurrence of the stomach ulcer.
# Antibiotic Klacid (clarithromycin, Abbott) was administered intramuscularly in the dose of 10 mg in 1 ml of saline solution daily for 5 days from the occurrence of the stomach ulcer.
# Material for study was taken from ulcer edge on the 7th day (for western blot assay and polymerase chain reaction in real time - RT-PCR), as well as on the 7th, 15th and 21st day for morphology study and confocal microscopy.
# For a morphology study, pieces of gastric mucous membrane from the ulcer edge were fixed in 10% neutral formalin (pH 7.2), then the material was dried out in a Leica TP1020 automatic station (Leica) and covered with paraffin. 5 µm thick paraffin slices were placed on object plates covered with a poly-L-lysine film (Sigma). For a visual study the slices were stained with hematoxylin and eosin, as well as with picrofuxin by the van Gison method.
smiles,measurement,setting,value
"CC[C@H]1OC(=O)[C@H](C)[C@@H](O[C@H]2C[C@@](C)(OC)[C@@H](O)[C@H](C)O2)[C@H](C)[C@@H](O[C@@H]2O[C@H](C)C[C@H](N(C)C)[C@H]2O)[C@](C)(OC)C[C@@H](C)C(=O)[C@H](C)[C@@H](O)[C@]1(C)O [Klacid, clarithromycin]",biological activity (prevention of Helicobacter pylori-induced mitochondrial apoptosis disorder) relative to the peptide composition,[1],comparable in terms of efficiency
same,"ulcer pathomorphosis, 7th day","modeled ulcer; 7th day after ulcer induction, peptide 1, 2,5, 10 µg/kg subcutaneously or intragastrically",largely similar to the changes in Group 3
same,"ulcer pathomorphosis, 15th day","modeled ulcer; 15th day after ulcer induction, peptide 1, 2,5, 10 µg/kg subcutaneously or intragastrically",The same changes were observed
same,"ulcer pathomorphosis, 21st day","modeled ulcer; 21st day after ulcer induction, peptide both methods of administration and three dosages",caused the same changes
